The record followed here is US20250230155A1 (Vanderbilt University, priority 2021, published 2025).

The target of this test is T1, human mAChR M4 (Homo sapiens, UniProt P08173).
T1 construct: expressed in transfected cells
T1 sequence (P08173 1-479): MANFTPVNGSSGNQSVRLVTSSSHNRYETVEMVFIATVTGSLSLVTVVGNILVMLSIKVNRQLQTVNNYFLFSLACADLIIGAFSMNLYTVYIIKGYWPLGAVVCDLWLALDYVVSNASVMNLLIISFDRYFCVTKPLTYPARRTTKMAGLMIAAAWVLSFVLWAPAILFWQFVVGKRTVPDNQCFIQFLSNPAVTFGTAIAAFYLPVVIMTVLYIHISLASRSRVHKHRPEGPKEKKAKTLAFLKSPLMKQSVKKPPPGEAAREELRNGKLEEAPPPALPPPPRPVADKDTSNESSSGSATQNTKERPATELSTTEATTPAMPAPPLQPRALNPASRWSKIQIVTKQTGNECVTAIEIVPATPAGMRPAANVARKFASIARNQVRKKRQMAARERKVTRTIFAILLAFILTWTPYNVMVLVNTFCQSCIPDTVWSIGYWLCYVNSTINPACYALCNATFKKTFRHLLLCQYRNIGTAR
As to the kind of experiment: mAChR M4 cell-based functional assay (calcium mobilization, CHO-K1 hM4-Gqi5 cells). The conditions noted are these: for Emax at 30 µM: CHO-K1, % ACh maximum at 30 μM, human M4; for EC50: positive allosteric modulator activity, increase in the EC20 acetylcholine response, CHO-K1 hM4-Gqi5 cells, read-out: Human M4 EC50. The procedure, abridged:
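Fluorescent calcium read-out (Fluo-4 AM, FDSS, 1 Hz) in hM4-Gqi5 CHO-K1 cells, 11-point 1:3 compound series. Agonism scored on compound addition, PAM activity as increase of the 144 s EC20 acetylcholine response, antagonism as decrease of the 230 s EC80 response; four-parameter logistic fits give EC50 and Emax.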

For the compound `Cc1c(C#N)nnc(N2CCc3ncc(N4CCC(C)n5nccc54)cc3C2)c1C` (stereo not shown) [Example 364, 4,5-dimethyl-6-(3-(7-methyl-6,7-dihydropyrazolo[1,5-a]pyrimidin-4(5H)-yl)-7,8-dihydro-1,6-naphthyridin-6(5H)-yl)pyridazine-3-carbonitrile], the Emax at 30 µM was found to be 98% and the EC50 worked out at 0.321 µM.
The corresponding values for `Cc1cc(C(=O)N2CC(F)C2)nnc1N1CCc2ncc(CC(F)(F)F)cc2C1` [Example 586, (3-fluoroazetidin-1-yl)(5-methyl-6-(3-(2,2,2-trifluoroethyl)-7,8-dihydro-1,6-naphthyridin-6(5H)-yl)pyridazin-3-yl)methanone] are 99% and 0.176 µM.
In the same order, the values of `Cc1nc(Cl)c(C)c(N2CCc3ncc(-c4c(C)nn(C)c4C)cc3C2)n1` [compound 193, 6-(6-chloro-2,5-dimethyl-pyrimidin-4-yl)-3-(1,3,5-trimethylpyrazol-4-yl)-7,8-dihydro-5H-1,6-naphthyridine] are 82% and 0.605 µM.
In the same order, the values of `Cc1cc(C#N)cnc1N1CCc2ncc(Oc3cccc(F)c3)cc2C1` [compound 181, 6-[3-(3-fluorophenoxy)-7,8-dihydro-5H-1,6-naphthyridin-6-yl]-5-methyl-pyridine-3-carbonitrile] are 90% and 0.141 µM.
For `Cc1cc(C(N)=O)cnc1N1CCc2ncc(C(F)(F)F)cc2C1` [Example 448, 5-methyl-6-(3-(trifluoromethyl)-7,8-dihydro-1,6-naphthyridin-6(5H)-yl)nicotinamide], the Emax at 30 µM worked out at 102% and the half-maximal effective concentration (EC50) worked out at 0.537 µM.
As to `Cc1cc(C#N)cnc1N1CCc2ncc(N3CCN(C)CC3=O)cc2C1` [Example 420, 5-methyl-6-(3-(4-methyl-2-oxopiperazin-1-yl)-7,8-dihydro-1,6-naphthyridin-6(5H)-yl)nicotinonitrile], the Emax at 30 µM turned out to be 43% and the EC50 was ≥ 10 µM.
`Cc1cnc2c(c1)CN(c1ncc(C(=O)NCc3ccncc3C)cc1C)CC2` [Example 441, 5-methyl-6-(3-methyl-7,8-dihydro-1,6-naphthyridin-6(5H)-yl)-N-((3-methylpyridin-4-yl)methyl)nicotinamide]: the Emax at 30 µM is 88% and the EC50 came to 0.143 µM.
The corresponding values for `Cc1ncc(CNC(=O)c2cnc(N3CCc4ncccc4C3)c(C)c2)s1` [compound 127, 6-(7,8-dihydro-5H-1,6-naphthyridin-6-yl)-5-methyl-N-[(2-methylthiazol-5-yl)methyl]pyridine-3-carboxamide] are 67% and 2.62 µM.
The corresponding values for `Cc1cc(C#N)cnc1N1CCc2ncc(Nc3ncccc3F)cc2C1` [compound 167, 6-[3-[(3-fluoro-2-pyridyl)amino]-7,8-dihydro-5H-1,6-naphthyridin-6-yl]-5-methyl-pyridine-3-carbonitrile] are 91% and 0.265 µM.
The corresponding values for `Cc1ccc(Nc2cnc3c(c2)CN(c2ncc(C#N)cc2C)CC3)c(F)n1` [compound 132, 6-[3-[(2-fluoro-6-methyl-3-pyridyl)amino]-7,8-dihydro-5H-1,6-naphthyridin-6-yl]-5-methyl-pyridine-3-carbonitrile] are 96% and 0.234 µM.
Take `COC1(C)CN(C(=O)c2cc(C)c(N3CCc4ncc(N5CCCn6nccc65)cc4C3)nn2)C1` [Example 552, (6-(3-(6,7-dihydropyrazolo[1,5-a]pyrimidin-4(5H)-yl)-7,8-dihydro-1,6-naphthyridin-6(5H)-yl)-5-methylpyridazin-3-yl)(3-methoxy-3-methylazetidin-1-yl)methanone]: the maximum response (Emax) at 30 µM is 76% and the concentration giving a half-maximal response (EC50) was 0.022 µM.
The corresponding values for `Cc1cc(C#N)cnc1N1CCc2ncc(-c3cn(C)nc3C)cc2C1` [compound 103, 6-[3-(1,3-dimethylpyrazol-4-yl)-7,8-dihydro-5H-1,6-naphthyridin-6-yl]-5-methyl-pyridine-3-carbonitrile] are 95% and 0.158 µM.
The corresponding values for `Cc1cc(C(=O)N2CCc3ccncc3C2)nnc1N1CCc2ncc(C(F)(F)F)cc2C1` [Example 499, (3,4-dihydro-2,7-naphthyridin-2(1H)-yl)(5-methyl-6-(3-(trifluoromethyl)-7,8-dihydro-1,6-naphthyridin-6(5H)-yl)pyridazin-3-yl)methanone] are 88% and 2.67 µM.
The corresponding values for `Cc1cc(C(=O)Nc2ccncc2)cnc1N1CCc2ncc(-c3cn(C)nc3C)cc2C1` [Example 450, 6-(3-(1,3-dimethyl-1H-pyrazol-4-yl)-7,8-dihydro-1,6-naphthyridin-6(5H)-yl)-5-methyl-N-(pyridin-4-yl)nicotinamide] are 71% and 0.215 µM.
For the compound `Cc1cc(C#N)cnc1N1CCc2ncc(Nc3ccnn3C)cc2C1` [Example 306, 5-methyl-6-(3-((1-methyl-1H-pyrazol-5-yl)amino)-7,8-dihydro-1,6-naphthyridin-6(5H)-yl)nicotinonitrile], the Emax at 30 µM came to 109% and the concentration for a half-maximal effect (EC50) worked out at 0.023 µM.
`Cc1cc(C(=O)N2CC3(COC3)C2)nnc1N1CCc2ncc(N3CCO[C@H](C)C3)cc2C1` [Example 575, (R)-(5-methyl-6-(3-(2-methylmorpholino)-7,8-dihydro-1,6-naphthyridin-6(5H)-yl)pyridazin-3-yl)(2-oxa-6-azaspiro[3.3]heptan-6-yl)methanone]: the Emax at 30 µM was determined as 75% and the concentration giving a half-maximal response (EC50) is 0.088 µM.
The corresponding values for `Cc1cc(F)ncc1-c1cnc2c(c1)CN(c1ncc(C(=O)NCc3ccncc3)cc1C)CC2` [compound 177, 6-[3-(6-fluoro-4-methyl-3-pyridyl)-7,8-dihydro-5H-1,6-naphthyridin-6-yl]-5-methyl-N-(4-pyridylmethyl)pyridine-3-carboxamide] are 91% and 0.101 µM.
The corresponding values for `Cc1cc(C(=O)NCc2cccc(F)c2)cnc1N1CCc2ncccc2C1` [compound 159, 6-(7,8-dihydro-5H-1,6-naphthyridin-6-yl)-N-[(3-fluorophenyl)methyl]-5-methyl-pyridine-3-carboxamide] are 69% and 3.13 µM.
In the same order, the values of `Cc1cc(C#N)cnc1N1Cc2cc(N3CCOCC3)cnc2C(C)C1` (stereo not shown) [Example 405, 5-methyl-6-(8-methyl-3-morpholino-7,8-dihydro-1,6-naphthyridin-6(5H)-yl)nicotinonitrile] are 83% and 0.415 µM.
Take `Cc1cc(C#N)cnc1N1CCc2ncc(C3CCOC3)cc2C1` (stereo not shown) [Example 395, 5-methyl-6-(3-(tetrahydrofuran-3-yl)-7,8-dihydro-1,6-naphthyridin-6(5H)-yl)nicotinonitrile]: the Emax at 30 µM came out at 90% and the EC50 turned out to be 0.389 µM.
On to `Cc1cc(C#N)nnc1N1CCc2ncc(N3CCCn4nccc43)cc2C1` [Example 360, 6-(3-(6,7-dihydropyrazolo[1,5-a]pyrimidin-4(5H)-yl)-7,8-dihydro-1,6-naphthyridin-6(5H)-yl)-5-methylpyridazine-3-carbonitrile], for which the Emax at 30 µM turned out to be 129% and the EC50 turned out to be 0.088 µM.
Consider `Cc1cc(C#N)cnc1N1CCc2ncc(-c3cnn(Cc4ccccc4)c3)cc2C1` [compound 97, 6-[3-(1-benzylpyrazol-4-yl)-7,8-dihydro-5H-1,6-naphthyridin-6-yl]-5-methyl-pyridine-3-carbonitrile], for which the Emax at 30 µM was 81% and the EC50 came to 0.68 µM.
In the same order, the values of `Cc1cc(F)ncc1-c1cnc2c(c1)CN(c1nccc(C#N)c1C)CC2` [Example 437, 2-(3-(6-fluoro-4-methylpyridin-3-yl)-7,8-dihydro-1,6-naphthyridin-6(5H)-yl)-3-methylisonicotinonitrile] are 47% and 0.692 µM.
In the same order, the values of `Cc1cc2n(n1)CCCN2c1cnc2c(c1)CN(c1nnc(C#N)c(C)c1C)CC2` [Example 363, 4,5-dimethyl-6-(3-(2-methyl-6,7-dihydropyrazolo[1,5-a]pyrimidin-4(5H)-yl)-7,8-dihydro-1,6-naphthyridin-6(5H)-yl)pyridazine-3-carbonitrile] are 90% and 0.148 µM.
For the compound `Cc1c(C#N)nnc(N2CCc3ncc(-c4ccc(Cl)nc4)cc3C2)c1C` [compound 56, 6-[3-(6-chloro-3-pyridyl)-7,8-dihydro-5H-1,6-naphthyridin-6-yl]-4,5-dimethyl-pyridazine-3-carbonitrile], the maximum response (Emax) at 30 µM worked out at 53% and the half-maximal effective concentration (EC50) amounted to 0.364 µM.
The corresponding values for `Cc1nc(N2CCCC2)nc(N2CCc3ncc(Nc4ccnn4C)cc3C2)c1C` [compound 277, 6-(5,6-dimethyl-2-(pyrrolidin-1-yl)pyrimidin-4-yl)-N-(1-methyl-1H-pyrazol-5-yl)-5,6,7,8-tetrahydro-1,6-naphthyridin-3-amine] are 98% and 0.092 µM.
